This note sets out measurements from paper PMC12707362, “Targeting Aurora Kinases as Essential Cell‐Cycle Regulators to Deliver Multi‐Stage Antimalarials Against Plasmodium Falciparum” (Angewandte Chemie (International Ed. in English), 2025).

By IC50 is commonly meant the concentration that inhibits the measured activity by half. In general, inhibition refers to the percentage by which the read-out fell short of the control.

Molecules are shown by their SMILES. Read-outs that look alike come from different tables or passages of the source.

For experiment [1], the system named is synthetic β-hematin (βH) formation. The experiment can be described thus: NP-40 mediated cell-free β-hematin inhibition assay. As to conditions: cell-free NP-40, pH 4.8, 5 h. The format is biochemical. Here is the method: The β-hematin inhibition assay, as described in^[30,31] was used to test the inhibitors for their ability to inhibit β-hematin formation. The test samples were prepared as 20 mM or 10 mM stock solutions in dimethyl sulfoxide (DMSO). Serial dilutions of each inhibitor (100 μL) were performed from column 12 to column 2 of a 96-well plate in triplicate, with column 1 serving as a negative control (0 μM test inhibitor). The samples were tested at a starting in-well concentration of 1000 μM (20 mM stock) or 500 μM (10 mM stock). An “NP-40 substitute” detergent was added (305.5 μM) to each well to mimic the lipophilic environment in which hemozoin formation occurs within the parasite’s digestive vacuole, in helping to mediate the formation of β-hematin. A 25 mM hematin stock was prepared by sonicating heme in DMSO and then suspending 178.8 μL of this in 1 M acetate buffer (20 mL, pH 4.8). Then, 100 μL of the hematin suspension was added to each well to a final well volume of 200 μL. The plate was then incubated for 5 hours at 37 °C. After incubation, 32 μL and 60 μL of 50% pyridine solution and acetone were added, respectively. The pyridine-ferrochrome method by^[31] was used for UV-vis analysis, with the heme-pyridine complex absorbance measured at 405 nm. Data were analysed using Microsoft Excel and GraphPad Prism v10.5 software.

Experiment [2] relates to multidrug-resistant PfK1 ABS parasites. The experiment can be described thus: SYBR Green I proliferation assay, PfK1 asexual blood stages. The class given is cell-based. As to conditions: Plasmodium falciparum. The protocol: (B) Antiplasmodial activity of nine anticancer aurora kinase inhibitors (selected based on their PfNF54 ABS activity) against P. falciparum multidrug-resistant ABS parasites (PfDd2 and PfK1). (C) Kinobead competitive inhibition data.
(§1) All inhibitors were dissolved in dimethyl sulfoxide (DMSO). Antiplasmodium activity of selected anti-cancer inhibitors was determined on P. falciparum NF54 and Dd2 strains, measuring SYBR Green I fluorescence (485 nm excitation, 538 nm emission) as an indicator of proliferation^[4]. Ring-stage ABS parasites (1% parasitemia, 1% hematocrit) were treated with compounds for 96 h at 37 °C with chloroquine disulphate (0.5 μM) as positive drug control. The activity of the inhibitors was tested against immature (>95% stage II/III) and late-stage (>90% stage IV/V) gametocytes using a luciferase reporter assay on 3D7elo1-pfs16-CBG99 ^[1]. […] Luciferase activity was determined using a non-lysing D-luciferin substrate (1 mM in 0.1 M citrate buffer, pH 5.5, 100 μL) and bioluminescence was detected with a GloMax® - Multi Detection System with Instinct® software.

The subject of experiment [3] is P. falciparum drug-sensitive NF54 (PfNF54) asexual intra-erythrocytic parasites. Nature of the experiment: SYBR Green I proliferation assay, PfNF54 asexual blood stages. The class given is cell-based, Plasmodium falciparum. The text has this: Figure 1 Activity profile of Aur class anticancer inhibitors across the life cycle of Plasmodium falciparum parasites. a) Activity (IC50) of inhibitors (grouped based on specificity against human Aur) against P.falciparum drug‐sensitive (PfNF54) asexual intra‐erythrocytic parasites as measured with SYBR Green I fluorescence as an indicator of viability and proliferation. […] ABS, asexual blood stages of the parasite; HsAur, human Aur.
P. falciparum drug sensitive NF54 (PfNF54) and drug-resistant Dd2 (PfDd2, chloroquine, pyrimethamine and mefloquine resistant) strains were cultured in vitro in human O^+/A^+ erythrocytes (5% hematocrit) in complete medium at 2–5% parasitemia, 37 °C, shaking at 60 rpm under hypoxic conditions (90% N2, 5% O2 and 5% CO2). […] Gametocytogenesis was followed with daily media changes (including glucose) and ABS parasites removed with 50 mM N-acetylglucosamine (day 1–4 for stage II/III; days 3–7 for stage IV/V).
All inhibitors were dissolved in dimethyl sulfoxide (DMSO). […] Ring-stage ABS parasites (1% parasitemia, 1% hematocrit) were treated with compounds for 96 h at 37 °C with chloroquine disulphate (0.5 μM) as positive drug control. […] Luciferase activity was determined using a non-lysing D-luciferin substrate (1 mM in 0.1 M citrate buffer, pH 5.5, 100 μL) and bioluminescence was detected with a GloMax® - Multi Detection System with Instinct® software.

Experiment [4] relates to late-stage (stage IV/V) gametocytes, P. falciparum 3D7elo1-pfs16-CBG99. Nature of the experiment: Luciferase reporter assay, late-stage gametocytes. The class given is cell-based. As to conditions: Plasmodium falciparum, 48 h, read-out: Pf Late stage gametocyte %inhibition @ 5 µM. Here is the method: P. falciparum drug sensitive NF54 (PfNF54) and drug-resistant Dd2 (PfDd2, chloroquine, pyrimethamine and mefloquine resistant) strains were cultured in vitro in human O^+/A^+ erythrocytes (5% hematocrit) in complete medium at 2–5% parasitemia, 37 °C, shaking at 60 rpm under hypoxic conditions (90% N2, 5% O2 and 5% CO2). Immature and mature gametocytes were produced from P. falciparum 3D7elo1-pfs16-CBG99 (kind gift from Pietro Alano, ISS, Italy) ^[1] as described^[2,3] by simultaneously applying nutrient starvation and decreasing hematocrit to induce >97% ring-stage ABS parasites (0.5% parasitemia, 6% hematocrit). Gametocytogenesis was followed with daily media changes (including glucose) and ABS parasites removed with 50 mM N-acetylglucosamine (day 1–4 for stage II/III; days 3–7 for stage IV/V).
as §1
(A reporter such as luciferase makes a cellular process visible.)

Experiment [5] deals with PfNF54 male gamete formation (exflagellation). Nature of the experiment: P. falciparum Dual Gamete Formation Assay (PfDGFA), male. The class given is cell-based. As to conditions: Plasmodium falciparum. Here is the method: (§2) The Pf DGFA^[8] was performed by incubating PfNF54 gametocytes with test molecules in 384-well plates for 48 h. Gametogenesis was triggered with the addition of xanthurenic acid and a decrease in temperature. Male and female gametes were identified through fluorescent microscopy and quantified from recorded data using a custom imaging algorithm and then compared to negative (DMSO) and positive (1 µM cabamiquine) controls. Percentage inhibition was calculated, and dose-response curves were constructed in GraphPad Prism v10.5 to calculate IC50 values.

For the next experiment, the system named is PfNF54 female gametes. Nature of the experiment: P. falciparum Dual Gamete Formation Assay (PfDGFA), female. The class given is cell-based, Plasmodium falciparum. Here is the method:
as §2

A further experiment addresses recombinant PfArk1 (Plasmodium falciparum, UniProt C6KSQ1). The experiment can be described thus: KinaseSeeker three-hybrid split-luciferase competitive binding assay, PfArk1.
The mark [6] stands for this setting: multidrug-resistant K1, read-out: Pf K1 ABS IC50.
The mark [7] stands for this setting: Plasmodium falciparum, NF54, 96 h, ring-stage ABS, 96 h, SYBR Green I, read-out: Pf NF54 ABS IC50.
The mark [8] stands for this setting: Plasmodium falciparum, NF54, bounds stated in text, read-out: Pf NF54 ABS IC50.
Setting [9] is: Plasmodium falciparum, NF54, 96 h, read-out: Pf NF54 ABS IC50.
Setting [10] is: Plasmodium falciparum, NF54, read-out: Pf NF54 ABS IC50.
Setting [11] is: 48 h, read-out: Pf DGFA IC50 Male.
[12] abbreviates: Plasmodium falciparum, 48 h, read-out: Pf DGFA IC50 Female.
The mark [13] stands for this setting: ring-stage ABS, 96 h, SYBR Green I, read-out: Pf NF54 ABS IC50.
The mark [14] stands for this setting: read-out: IC50 male gamete exflagellation.

recombinant PfArk1, sequence (C6KSQ1 entry or part of it): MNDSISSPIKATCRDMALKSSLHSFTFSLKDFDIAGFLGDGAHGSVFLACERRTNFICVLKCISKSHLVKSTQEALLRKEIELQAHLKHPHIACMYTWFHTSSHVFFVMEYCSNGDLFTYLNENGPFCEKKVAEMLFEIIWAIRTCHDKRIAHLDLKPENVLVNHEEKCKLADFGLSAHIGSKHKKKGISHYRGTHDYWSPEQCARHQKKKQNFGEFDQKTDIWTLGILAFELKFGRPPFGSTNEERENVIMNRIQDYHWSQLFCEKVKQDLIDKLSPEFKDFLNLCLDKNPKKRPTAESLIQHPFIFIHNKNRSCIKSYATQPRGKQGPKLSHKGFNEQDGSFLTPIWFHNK
Procedure for recombinant PfArk1: Supplementary Figure S3: (A) Single-point activity profile of selected inhibitors at 1 µM against recombinant PfArk-1 and PfArk-3 proteins, utilising a three-hybrid split-luciferase competitive binding assay (KinaseSeeker™).

For the compound `O=C(Nc1cccc(Nc2nccc(Nc3cccc(C(F)(F)F)c3)n2)c1)C1CC1` [Aki III, Aurora kinase inhibitor III], the IC50 in experiment [1] is < 20 µM; in experiment [2] (setting [6]) it was 1.38 µM; in experiment [3] (setting [7]) it was 0.819 µM; in experiment [3] (setting [8]) it was < 1 µM. Moreover, the inhibition at 5 µM in experiment [4] amounted to 3.5%.
As for `CCN1CCN(C(=O)Cc2ccc(Nc3ncc(F)c(Nc4ccc(C(=O)Nc5ccccc5Cl)cc4)n3)cc2)CC1` [AAi I, Aurora A Inhibitor I], the IC50 was < 20 µM in experiment [1]; 0.342 µM in experiment [2] (K1, read-out: Pf K1 ABS IC50); 0.475 ± 0.0901 µM in experiment [3] (setting [9]); < 1 µM in experiment [3] (setting [10]). For the same compound, the inhibition at 5 µM in experiment [4] amounted to 48.7%.
For `COc1cc2c(Nc3ccc(NC(=O)c4ccccc4)cc3)ncnc2cc1OCCCN1CCOCC1` [ZM-39, ZM-447439], the IC50 was < 20 µM in experiment [1]; 0.277 µM in experiment [2] (setting [6]); > 10 µM in experiment [5] (setting [11]); > 10 µM with PfNF54 female gametes (setting [12]); < 0.25 µM in experiment [3] (setting [7]); < 1 µM in experiment [3] (setting [8]). Also, the IC50 in experiment [3] (setting [13]) was found to be 0.235 µM. Also, in experiment [4], the inhibition at 5 µM is 21.5%.
`COc1cc(N2CCC(N3CCN(C)CC3)CC2)ccc1Nc1ncc(Cl)c(Nc2ccccc2S(=O)(=O)C(C)C)n1` [TAE684, NVP-TAE684]: the IC50 turned out to be 41.4 ± 2.3 µM in experiment [1]; 0.12 µM in experiment [5] (setting [11]); 0.116 ± 0.017 µM in experiment [5] (setting [14]); 2.26 µM with PfNF54 female gametes (48 h; read-out: Pf DGFA IC50 Female); 2.3 ± 0.05 µM with PfNF54 female gametes (setting [12]); 0.146 ± 0.02 µM on recombinant PfArk1. Besides, the concentration for half-maximal inhibition (IC50) in experiment [3] (setting [7]) came out at 0.28 ± 0.013 µM; in experiment [3] (setting [13]) it was 0.279 µM. The inhibition at 5 µM in experiment [4] is 50.8%.
On to `O=C(Nc1c[nH]nc1-c1nc2ccc(CN3CCOCC3)cc2[nH]1)NC1CC1` [AT83, AT9283], for which the IC50 in experiment [2] (setting [6]) was 0.102 µM; in experiment [5] (setting [11]), 0.8 µM; in experiment [5] (setting [14]), 0.786 ± 0.016 µM; in the experiment on PfNF54 female gametes (Plasmodium falciparum, 48 h; read-out: Pf DGFA IC50 Female), > 10 µM. Also, the “inhibition of PfArk1” value on recombinant PfArk1 (single point 1 µM) was 30%. Moreover, the inhibition at 5 µM in experiment [4] was determined as 48.9%.
For `CCN(CCO)CCCOc1ccc2c(Nc3cc(CC(=O)Nc4cccc(F)c4)n[nH]3)ncnc2c1` [AZD-1152, AZD-1152-HQPA], the IC50 in experiment [1] is < 20 µM; in experiment [2] (setting [6]), 0.341 µM; in experiment [3] (setting [9]), 0.753 µM; in experiment [3] (setting [10]) it was < 1 µM. Further, in experiment [4], the inhibition at 5 µM is 38.2%.
